Bridge positions count the residues as written; N and C are the ends. Square brackets hold non-standard residues; d marks the D form. Ends that are not written are not given here. Peptide text beside a SMILES is read from it.
System: S. aureus DPC5246
Type: cell-based, Staphylococcus aureus
Details: for Activity (Minimum Inhibitory Concentration, MIC): DPC5246, pH 6.8; for fold reduction in activity compared with bactofencin A (wild type): S. aureus DPC5246, agar well diffusion MIC
Protocol: Peptides were resuspended at 1000 µM in 50 mM sodium phosphate buffer pH 6.8 and checked for purity by MALDI-TOF-MS. Peptides were serially diluted 1 in 4 to give a dilution series of 250, 62.50, 15.63, 3.91, 0.98 and 0.24 µM and assayed by the agar well diffusion assay described by Ryan et al.[19]. Briefly, 50 µl aliquots of each peptide concentration were plated on a S. aureus DPC5246 indicator plate and the plate incubated at 37 °C. Peptide activity (Minimum Inhibitory Concentration (MIC)) was taken as the lowest concentration of peptide to give a zone of inhibition. All assays were performed in triplicate. The dilution series values were rounded to the nearest whole number to give 1000, 250, 63, 16, 4, 1 and 0.25 µM and data is colour coded for ease of interpretation.

| Molecule | Activity (Minimum Inhibitory Concentration, MIC) [µM] | fold reduction in activity compared with bactofencin A (wild type) [fold] |
| --- | --- | --- |
| CSCC[C@@H]1NC(=O)CNC(=O)[C@H](CC(N)=O)NC(=O)[C@H](CC(N)=O)NC(=O)[C@H](Cc2ccc(O)cc2)NC(=O)[C@H](C(C)C)NC(=O)[C@H](CCCNC(=N)N)NC(=O)[C@@H](NC(=O)[C@H](CCCNC(=N)N)NC(=O)[C@H](Cc2c[nH]cn2)NC(=O)[C@H](CCCCN)NC(=O)[C@H](CCCCN)NC(=O)[C@H](CCCNC(=N)N)NC(=O)[C@@H](N)CCCCN)CSSC[C@@H](C(=O)O)NC(=O)[C@H](Cc2c[nH]c3ccccc23)NC(=O)[C@H](CCCNC(=N)N)NC(=O)[C@H](Cc2ccc(O)cc2)NC(=O)[C@H](CCSC)NC(=O)CNC(=O)[C@H]([C@@H](C)O)NC(=O)[C@H](C)NC1=O [P15A] (H-KRKKHRCRVYNNGMATGMYRWC-OH; disulfide 7-22) | 1 | – |
| KRKKHRSRVYNNGMPTGMYRWC-OH [C7S] | 63 | 63 |
| CSCC[C@@H]1NC(=O)CNC(=O)[C@H]([C@@H](C)O)NC(=O)[C@@H]2CCCN2C(=O)[C@H](CCSC)NC(=O)CNC(=O)[C@H](CC(N)=O)NC(=O)[C@H](CC(N)=O)NC(=O)[C@H](Cc2ccc(O)cc2)NC(=O)[C@H](C(C)C)NC(=O)[C@H](C)NC(=O)[C@@H](NC(=O)[C@H](CCCNC(=N)N)NC(=O)[C@H](Cc2c[nH]cn2)NC(=O)[C@H](CCCCN)NC(=O)[C@H](CCCCN)NC(=O)[C@H](CCCNC(=N)N)NC(=O)[C@@H](N)CCCCN)CSSC[C@@H](C(=O)O)NC(=O)[C@H](Cc2c[nH]c3ccccc23)NC(=O)[C@H](CCCNC(=N)N)NC(=O)[C@H](Cc2ccc(O)cc2)NC1=O [R8A] (H-KRKKHRCAVYNNGMPTGMYRWC-OH; disulfide 7-22) | 1 | – |
| CSCC[C@@H]1NC(=O)CNC(=O)[C@H]([C@@H](C)O)NC(=O)[C@@H]2CCCN2C(=O)[C@H](CCSC)NC(=O)CNC(=O)[C@H](C)NC(=O)[C@H](CC(N)=O)NC(=O)[C@H](Cc2ccc(O)cc2)NC(=O)[C@H](C(C)C)NC(=O)[C@H](CCCNC(=N)N)NC(=O)[C@@H](NC(=O)[C@H](CCCNC(=N)N)NC(=O)[C@H](Cc2c[nH]cn2)NC(=O)[C@H](CCCCN)NC(=O)[C@H](CCCCN)NC(=O)[C@H](CCCNC(=N)N)NC(=O)[C@@H](N)CCCCN)CSSC[C@@H](C(=O)O)NC(=O)[C@H](Cc2c[nH]c3ccccc23)NC(=O)[C@H](CCCNC(=N)N)NC(=O)[C@H](Cc2ccc(O)cc2)NC1=O [N12A] (H-KRKKHRCRVYNAGMPTGMYRWC-OH; disulfide 7-22) | 4 | – |
| CSCC[C@@H]1NC(=O)[C@H](C)NC(=O)[C@H]([C@@H](C)O)NC(=O)[C@@H]2CCCN2C(=O)[C@H](CCSC)NC(=O)CNC(=O)[C@H](CC(N)=O)NC(=O)[C@H](CC(N)=O)NC(=O)[C@H](Cc2ccc(O)cc2)NC(=O)[C@H](C(C)C)NC(=O)[C@H](CCCNC(=N)N)NC(=O)[C@@H](NC(=O)[C@H](CCCNC(=N)N)NC(=O)[C@H](Cc2c[nH]cn2)NC(=O)[C@H](CCCCN)NC(=O)[C@H](CCCCN)NC(=O)[C@H](CCCNC(=N)N)NC(=O)[C@@H](N)CCCCN)CSSC[C@@H](C(=O)O)NC(=O)[C@H](Cc2c[nH]c3ccccc23)NC(=O)[C@H](CCCNC(=N)N)NC(=O)[C@H](Cc2ccc(O)cc2)NC1=O [G17A] (H-KRKKHRCRVYNNGMPTAMYRWC-OH; disulfide 7-22) | 4 | – |
| CSCC[C@@H]1NC(=O)CNC(=O)[C@H]([C@@H](C)O)NC(=O)[C@@H]2CCCN2C(=O)[C@H](CCSC)NC(=O)CNC(=O)[C@H](CC(N)=O)NC(=O)[C@H](C)NC(=O)[C@H](Cc2ccc(O)cc2)NC(=O)[C@H](C(C)C)NC(=O)[C@H](CCCNC(=N)N)NC(=O)[C@@H](NC(=O)[C@H](CCCNC(=N)N)NC(=O)[C@H](Cc2c[nH]cn2)NC(=O)[C@H](CCCCN)NC(=O)[C@H](CCCCN)NC(=O)[C@H](CCCNC(=N)N)NC(=O)[C@@H](N)CCCCN)CSSC[C@@H](C(=O)O)NC(=O)[C@H](Cc2c[nH]c3ccccc23)NC(=O)[C@H](CCCNC(=N)N)NC(=O)[C@H](Cc2ccc(O)cc2)NC1=O [N11A] (H-KRKKHRCRVYANGMPTGMYRWC-OH; disulfide 7-22) | 16 | – |
| CSCC[C@@H]1NC(=O)CNC(=O)[C@H]([C@@H](C)O)NC(=O)[C@@H]2CCCN2C(=O)[C@H](CCSC)NC(=O)CNC(=O)[C@H](CC(N)=O)NC(=O)[C@H](CC(N)=O)NC(=O)[C@H](Cc2ccc(O)cc2)NC(=O)[C@H](C(C)C)NC(=O)[C@H](CCCNC(=N)N)NC(=O)[C@@H](NC(=O)[C@@H](N)CCCNC(=N)N)CSSC[C@@H](C(=O)O)NC(=O)[C@H](Cc2c[nH]c3ccccc23)NC(=O)[C@H](CCCNC(=N)N)NC(=O)[C@H](Cc2ccc(O)cc2)NC1=O [R6-C22] (H-RCRVYNNGMPTGMYRWC-OH; disulfide 2-17; N-terminus assumed) | 63 | – |
| KRKKHRARVYNNGMPTGMYRWA [C7A-C22A] | 16 | 16 |
| CSCC[C@@H]1NC(=O)CNC(=O)[C@H](C)NC(=O)[C@@H]2CCCN2C(=O)[C@H](CCSC)NC(=O)CNC(=O)[C@H](CC(N)=O)NC(=O)[C@H](CC(N)=O)NC(=O)[C@H](Cc2ccc(O)cc2)NC(=O)[C@H](C(C)C)NC(=O)[C@H](CCCNC(=N)N)NC(=O)[C@@H](NC(=O)[C@H](CCCNC(=N)N)NC(=O)[C@H](Cc2c[nH]cn2)NC(=O)[C@H](CCCCN)NC(=O)[C@H](CCCCN)NC(=O)[C@H](CCCNC(=N)N)NC(=O)[C@@H](N)CCCCN)CSSC[C@@H](C(=O)O)NC(=O)[C@H](Cc2c[nH]c3ccccc23)NC(=O)[C@H](CCCNC(=N)N)NC(=O)[C@H](Cc2ccc(O)cc2)NC1=O [T16A] (H-KRKKHRCRVYNNGMPAGMYRWC-OH; disulfide 7-22) | 16 | – |
| CSCC[C@@H]1NC(=O)CNC(=O)[C@H]([C@@H](C)O)NC(=O)[C@@H]2CCCN2C(=O)[C@H](CCSC)NC(=O)CNC(=O)[C@H](CC(N)=O)NC(=O)[C@H](CC(N)=O)NC(=O)[C@@H](Cc2ccc(O)cc2)NC(=O)[C@H](C(C)C)NC(=O)[C@H](CCCNC(=N)N)NC(=O)[C@@H](NC(=O)[C@H](CCCNC(=N)N)NC(=O)[C@H](Cc2c[nH]cn2)NC(=O)[C@H](CCCCN)NC(=O)[C@H](CCCCN)NC(=O)[C@H](CCCNC(=N)N)NC(=O)[C@@H](N)CCCCN)CSSC[C@@H](C(=O)O)NC(=O)[C@H](Cc2c[nH]c3ccccc23)NC(=O)[C@H](CCCNC(=N)N)NC(=O)[C@H](Cc2ccc(O)cc2)NC1=O [Y10Yd] (H-KRKKHRCRV[dY]NNGMPTGMYRWC-OH; disulfide 7-22; N-terminus assumed) | > 1000 | – |
| CSCC[C@@H]1NC(=O)CNC(=O)[C@H]([C@@H](C)O)NC(=O)[C@@H]2CCCN2C(=O)[C@H](CCSC)NC(=O)CNC(=O)[C@H](CC(N)=O)NC(=O)[C@H](CC(N)=O)NC(=O)[C@H](Cc2ccc(O)cc2)NC(=O)[C@H](C(C)C)NC(=O)[C@@H](CCCNC(=N)N)NC(=O)[C@@H](NC(=O)[C@H](CCCNC(=N)N)NC(=O)[C@H](Cc2c[nH]cn2)NC(=O)[C@H](CCCCN)NC(=O)[C@H](CCCCN)NC(=O)[C@H](CCCNC(=N)N)NC(=O)[C@@H](N)CCCCN)CSSC[C@@H](C(=O)O)NC(=O)[C@H](Cc2c[nH]c3ccccc23)NC(=O)[C@H](CCCNC(=N)N)NC(=O)[C@H](Cc2ccc(O)cc2)NC1=O [R8Rd] (H-KRKKHRC[dR]VYNNGMPTGMYRWC-OH; disulfide 7-22; N-terminus assumed) | 63 | 63 |
| CSCC[C@@H]1NC(=O)CNC(=O)[C@H]([C@@H](C)O)NC(=O)[C@@H]2CCCN2C(=O)[C@H](CCSC)NC(=O)CNC(=O)[C@H](CC(N)=O)NC(=O)[C@H](CC(N)=O)NC(=O)[C@H](Cc2ccc(O)cc2)NC(=O)[C@H](C(C)C)NC(=O)[C@H](CCCNC(=N)N)NC(=O)[C@@H](NC(=O)[C@H](CCCNC(=N)N)NC(=O)[C@H](Cc2c[nH]cn2)NC(=O)[C@@H](N)CCCCN)CSSC[C@@H](C(=O)O)NC(=O)[C@H](Cc2c[nH]c3ccccc23)NC(=O)[C@H](CCCNC(=N)N)NC(=O)[C@H](Cc2ccc(O)cc2)NC1=O [K4-C22] (H-KHRCRVYNNGMPTGMYRWC-OH; disulfide 4-19; N-terminus assumed) | 4 | – |
| KRKKHRCRVYNNGMPTGMYRWS [C22S] | 250 | 250 |
| CSCC[C@@H]1NC(=O)CNC(=O)[C@H]([C@@H](C)O)NC(=O)[C@@H]2CCCN2C(=O)[C@H](CCSC)NC(=O)CNC(=O)[C@H](CC(N)=O)NC(=O)[C@H](CC(N)=O)NC(=O)[C@H](Cc2ccc(O)cc2)NC(=O)[C@H](C(C)C)NC(=O)[C@H](CCCNC(=N)N)NC(=O)[C@@H](NC(=O)[C@H](CCCNC(=N)N)NC(=O)[C@H](Cc2c[nH]cn2)NC(=O)[C@H](CCCCN)NC(=O)[C@H](CCCCN)NC(=O)[C@H](CCCNC(=N)N)NC(=O)[C@H](C)N)CSSC[C@@H](C(=O)O)NC(=O)[C@H](Cc2c[nH]c3ccccc23)NC(=O)[C@H](CCCNC(=N)N)NC(=O)[C@H](Cc2ccc(O)cc2)NC1=O [K1A] (H-ARKKHRCRVYNNGMPTGMYRWC-OH; disulfide 7-22) | 1 | – |
| CSCC[C@@H]1NC(=O)CNC(=O)[C@H]([C@@H](C)O)NC(=O)[C@H]2CCCN2C(=O)[C@H](CCSC)NC(=O)CNC(=O)[C@H](CC(N)=O)NC(=O)[C@H](CC(N)=O)NC(=O)[C@H](Cc2ccc(O)cc2)NC(=O)[C@H](C(C)C)NC(=O)[C@H](CCCNC(=N)N)NC(=O)[C@@H](NC(=O)[C@H](CCCNC(=N)N)NC(=O)[C@H](Cc2c[nH]cn2)NC(=O)[C@H](CCCCN)NC(=O)[C@H](CCCCN)NC(=O)[C@H](CCCNC(=N)N)NC(=O)[C@@H](N)CCCCN)CSSC[C@@H](C(=O)O)NC(=O)[C@H](Cc2c[nH]c3ccccc23)NC(=O)[C@H](CCCNC(=N)N)NC(=O)[C@H](Cc2ccc(O)cc2)NC1=O [P15Pd] (H-KRKKHRCRVYNNGM[dP]TGMYRWC-OH; disulfide 7-22; N-terminus assumed) | > 1000 | – |

Reference: article PMC6081437, “The potency of the broad spectrum bacteriocin, bactofencin A, against staphylococci is highly dependent on primary structure, N-terminal charge and disulphide formation” (Scientific Reports, 2018)
